# Test results reported in US20230159469A1, “NOVEL PHTHALAZINE DERIVATIVE HAVING ECTONUCLOEOTIDE PYROPHOSPHATASE/PHOSPHODIESTE RASE INHIBITORY ACTIVITY, AND USE THEREOF” (TXINNO BIOSCIENCE INC., priority 2020, published 2023).
# Structures can show the parent of a compound that is named as a salt.
# Target: T1, human recombinant ENPP1 (Homo sapiens, UniProt P22413)
# T1 construct: purchased R & D systems
# T1 sequence (P22413 1-925): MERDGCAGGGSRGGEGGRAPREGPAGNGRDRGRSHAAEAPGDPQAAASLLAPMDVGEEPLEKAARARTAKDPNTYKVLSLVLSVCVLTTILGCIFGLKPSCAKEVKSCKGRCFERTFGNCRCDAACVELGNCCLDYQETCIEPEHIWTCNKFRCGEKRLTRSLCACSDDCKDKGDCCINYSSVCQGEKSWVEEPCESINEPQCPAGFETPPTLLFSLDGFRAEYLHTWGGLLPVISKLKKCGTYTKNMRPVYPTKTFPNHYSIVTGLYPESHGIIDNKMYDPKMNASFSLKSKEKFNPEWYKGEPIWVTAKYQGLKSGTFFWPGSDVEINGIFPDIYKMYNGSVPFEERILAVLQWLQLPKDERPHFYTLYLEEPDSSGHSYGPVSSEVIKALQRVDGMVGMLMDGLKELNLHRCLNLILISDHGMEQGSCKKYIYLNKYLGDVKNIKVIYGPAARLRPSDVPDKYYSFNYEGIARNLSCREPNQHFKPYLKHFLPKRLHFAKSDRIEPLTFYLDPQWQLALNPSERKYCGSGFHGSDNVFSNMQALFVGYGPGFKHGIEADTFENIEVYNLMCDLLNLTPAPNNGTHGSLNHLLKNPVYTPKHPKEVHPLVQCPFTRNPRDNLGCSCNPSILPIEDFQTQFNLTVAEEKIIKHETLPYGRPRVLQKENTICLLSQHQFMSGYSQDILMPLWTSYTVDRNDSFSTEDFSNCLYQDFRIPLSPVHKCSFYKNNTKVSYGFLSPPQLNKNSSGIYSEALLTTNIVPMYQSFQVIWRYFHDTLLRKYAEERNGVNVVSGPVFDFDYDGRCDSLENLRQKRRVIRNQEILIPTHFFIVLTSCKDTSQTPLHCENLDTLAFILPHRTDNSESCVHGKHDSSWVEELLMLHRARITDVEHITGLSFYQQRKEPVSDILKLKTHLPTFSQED
# Assay: ENPP1 enzyme assay with cGAMP substrate (AMP-Glo luminescence)
# Type: biochemical
# Conditions: human recombinant ENPP1 3 ng/reaction, cGAMP 5 μM, 37° C. 90 minutes, read-out: Enzymatic activity (ENPP1 IC50)
# Experimental: ENPP1 hydrolyzes nucleotides or nucleotide derivatives to produce nucleoside -5′-monophosphate and pyrophosphate. in addition, ENPP1 hydrolyzes 2′,3′-cGAMP to produce 5′-adenosine monophosphate (AMP) and 5′-guanosine monophosphate (GMP). AMP produced from the reaction is measured using the AMP-Glo® kit (Promega). The AMP-Glo® kit contains two reagents. The first reagent terminates the AMP-producing enzymatic reaction, removes ATP and converts the produced AMP into ADP. The second reagent converts ADP to ATP which is used to generate luminescence in the luciferase reaction. The amount of luminescence measured is proportional to the amount of AMP produced by ENPP1.
# The final reaction mixture contains 50 mM Tris (pH 8.5) buffer, 250 mM NaCl, 0.5 mM. CaCl2, 1 μM ZnCl2, 5% glycerol and 1% DMSO. […] The reaction was initiated by addition of cGAMP (at a final concentration of 5 μM) and reacted at 37° C. for 90 minutes. At the end of the reaction, 10 μl of the AMP-Glo first reagent was added to stop the reaction and the result was stored at room temperature for […]. After storage, 20 μl of an AMP detection solution (a mixture of AMP-Glo II reagent and Kinase-Gio at a ratio of 1:100) was added and stored at room. temperature for 1 hour. Luminescence signals were measured using a Victor® plate reader (Perkin Elmer). The maximal activity control (containing enzymes and substrates only in the presence of 1% DMSO; MAX) and the minimal activity control (containing substrates and 1% DMSO; MIN) were evaluated simultaneously. In each experiment, serially diluted reference ENPP1 inhibitors were tested together. IC50, indicating % residual activity versus compound concentration was determined by fitting inhibition curves using the 3-parameter analysis of GraphPad Prism® software. Serially diluted samples of one compound were tested two or more times and an average IC50 of each compound was calculated.
row,IC50,Compound
1,1 to 10 µM,"O=c1[nH]nc(-c2ccccc2)c2ccccc12 [Compound No. 1, 4-phenylphthalazin-1(2H)-one]"
2,> 10 µM,"CC(C)(C)OC(=O)Nc1cccc(-c2n[nH]c(=O)c3ccccc23)c1 [Compound No. 2, tert-butyl (3-(4-oxo-3,4-dihydrophthalazin-1-yl)phenyl)carbamate]"
3,> 10 µM,"Cn1nc(-c2cccc(NC(=O)OC(C)(C)C)c2)c2ccccc2c1=O [Compound No. 3, tert-butyl (3(3-methyl-4-oxo-3,4-dihydrophthalazin-1-yl)phenyl)carbamate]"
4,> 10 µM,"CC(C)(C)OC(=O)Nc1cccc(-c2nn(Cc3ccccc3)c(=O)c3ccccc23)c1 [Compound No. 4, tert-butyl (3(3-benzyl-4-oxo-3,4-dihydrophthalazin-1-yl)phenyl)carbamate]"
5,> 10 µM,CC(C)(C)OC(=O)NCc1cccc(-c2n[nH]c(=O)c3ccccc23)c1 [Compound No. 5]
6,> 10 µM,"Cn1nc(-c2cccc(CNC(=O)OC(C)(C)C)c2)c2ccccc2c1=O [Compound No. 6, tert-butyl 3-(3-methyl-4-oxo-3,4-dihydrophthalazin-1-yl) benzyl carbamate]"
7,> 10 µM,Cn1nc(-c2ccc(CNC(=O)OC(C)(C)C)cc2)c2ccccc2c1=O [Compound No. 9]
8,> 10 µM,"CCn1nc(-c2ccc(CNC(=O)OC(C)(C)C)cc2)c2ccccc2c1=O [Compound No. 10, tert-butyl (4-(3-ethyl-4-oxo-3,4-dihydrophthalazin-1-yl)benzyl)carbamate]"
9,> 10 µM,"CC(C)(C)OC(=O)NCc1ccc(-c2nn(-c3ccccc3)c(=O)c3ccccc23)cc1 [Compound No. 12, tert-butyl (4-(4-oxo-3-phenyl-3,4-dihydrophthalazin-1-yl)benzyl)carbamate]"
10,> 10 µM,CC(C)(C)OC(=O)NCc1ccc(-c2nn(Cc3ccccc3)c(=O)c3ccccc23)cc1 [Compound No. 13]
11,> 10 µM,"CC(C)(C)OC(=O)NCc1ccc(-c2nn(Cc3ccc(F)cc3)c(=O)c3ccccc23)cc1 [Compound No. 14, tert-butyl (4-(3-(4-fluorobenzyl)-4-oxo-3,4-dihydrophthalazin-1-yl)benzyl)carbamate]"
12,> 10 µM,"COc1ccc2c(=O)[nH]nc(-c3ccc(CNC(=O)OC(C)(C)C)cc3)c2c1 [Compound No. 15, tert-butyl (4-(7-methoxy-4-oxo-3,4-dihydrophthalazin-1-yl)benzyl)carbamate]"
13,> 10 µM,"COc1ccc2c(-c3ccc(CNC(=O)OC(C)(C)C)cc3)nn(C)c(=O)c2c1 [Compound No. 18, tert-butyl (4-(6-methoxy-3-methyl-4-oxo-3,4-dihydrophthalazin-1-yl)benzyl)carbamate]"
14,> 10 µM,"COc1cc2c(-c3ccc(CNC(=O)OC(C)(C)C)cc3)nn(C)c(=O)c2cc1OC [Compound No. 20, tert-butyl (4-(6,7-dimethoxy-3-methyl-4-oxo-3,4-dihydrophthalazin-1-yl)benzyl)carbamate]"
15,> 10 µM,"CC(C)(C)OC(=O)NCc1ccc(-c2n[nH]c(=O)c3ccccc23)cc1C(F)(F)F [Compound No. 24, tert-butyl 4-(4-oxo-3,4-dihydrophthalazin-1-yl)-2-(trifluoromethyl)benzyl carbamate]"
16,> 10 µM,"CC(C)(C)OC(=O)N1CCc2cc(-c3n[nH]c(=O)c4ccccc34)ccc2C1 [Compound No. 26, tert-butyl 6-(4-oxo-3,4-dihydrophthalazin-1-yl)-3,4-dihydroisoquinoline-2(1H)-carboxylate]"
17,> 10 µM,"Cn1nc(-c2ccc3c(c2)CCN(C(=O)OC(C)(C)C)C3)c2ccccc2c1=O [Compound No. 27, tert-butyl-6-(3-methyl-4-oxo-3,4-dihydrophthalazin-1-yl)-3,4-dihydroisoquinoline-2(1H)-carboxylate]"

row,IC50,Compound
1,> 10 µM,"COc1cc2c(-c3ccc4c(c3)CCN(C(=O)OC(C)(C)C)C4)n[nH]c(=O)c2cc1OC [Compound No. 28, tert-butyl 6-(6,7-dimethoxy-4-oxo-3,4-dihydrophthalazin-1-yl)-3,4-dihydroisoquinoline-2(1H)-carboxylate]"
2,> 10 µM,"COc1cc2c(-c3ccc4c(c3)CCN(C(=O)OC(C)(C)C)C4)nn(C)c(=O)c2cc1OC [Compound No. 29, tert-butyl-6-(6,7-dimethoxy-3-methyl-4-oxo-3,4-dihydrophthalazin-1-yl)-3,4-dihydroisoquinoline-2(1H)-carboxylate]"
3,> 10 µM,"Nc1cccc(-c2n[nH]c(=O)c3ccccc23)c1 [Compound No. 30, 4-(3-aminophenyl)phthalazin-1(2H)-one hydrochloride]"
4,> 10 µM,"Cn1nc(-c2cccc(N)c2)c2ccccc2c1=O [Compound No. 31, 4-(3-aminophenyl)-2-methylphthalazin-1(2H)-one hydrochloride]"
5,> 10 µM,"Nc1cccc(-c2nn(Cc3ccccc3)c(=O)c3ccccc23)c1 [Compound No. 32, 4-(3-aminophenyl)-2-benzylphthalazin-1(2H)-one hydrochloride]"
6,> 10 µM,"NCc1cccc(-c2n[nH]c(=O)c3ccccc23)c1 [Compound No. 33, 4-(3-(aminomethyl)phenyl)phthalazin-1(2H)-one hydrochloride]"
7,> 10 µM,"NCc1cccc(-c2nn(Cc3ccccc3)c(=O)c3ccccc23)c1 [Compound No. 35, 4-(3-(aminomethyl)phenyl)-2-benzylphthalazin-1(2H)-one hydrochloride]"
8,< 1 µM,"Cn1nc(-c2ccc(CN)cc2)c2ccccc2c1=O [Compound No. 37, 4-(4-aminomethyl)phenyl)-2-methylphthalazin-1(2H)-one hydrochloride]"
9,< 1 µM,"CCn1nc(-c2ccc(CN)cc2)c2ccccc2c1=O [Compound No. 38, 4-(4-(aminomethyl)phenyl)-2-ethylphthalazin-1(2H)-one hydrochloride]"
10,> 10 µM,"CC(C)n1nc(-c2ccc(CN)cc2)c2ccccc2c1=O [Compound No. 39, 4-(4-(aminomethyl)phenyl)-2-isopropylphthalazin-1-(2H)-one hydrochloride]"
11,1 to 10 µM,"NCc1ccc(-c2nn(-c3ccccc3)c(=O)c3ccccc23)cc1 [Compound No. 40, 4-(4-aminomethyl)phenyl)-2-phenylphthalazin-1(2H)-one hydrochloride]"
12,1 to 10 µM,"NCc1ccc(-c2nn(Cc3ccccc3)c(=O)c3ccccc23)cc1 [Compound No. 41, 4-(4-aminomethyl)phenyl)-2-benzylphthalazin-1(2H)-one hydrochloride]"
13,1 to 10 µM,"NCc1ccc(-c2nn(Cc3ccc(F)cc3)c(=O)c3ccccc23)cc1 [Compound No. 42, 4-(4-(aminomethyl)phenyl)-2-(4-fluorobenzyl)phthalazin-1(2H)-one hydrochloride]"
14,< 1 µM,"COc1ccc2c(=O)[nH]nc(-c3ccc(CN)cc3)c2c1 [Compound No. 43, 4-(4-(aminomethyl)phenyl)-6-methoxyphthalazin-1(2H)-one hydrochloride]"
15,1 to 10 µM,"COc1ccc2c(=O)n(C)nc(-c3ccc(CN)cc3)c2c1 [Compound No. 44, (4-(7-methoxy-3-methyl-4-oxo-3,4-dihydrophthalazin-1-yl)phenyl)methanaminium chloride]"
16,> 10 µM,"COc1ccc2c(-c3ccc(CN)cc3)nn(C)c(=O)c2c1 [Compound No. 46, 4-(4-(aminomethyl)phenyl)-7-methoxy-2-methylphthalazin-1(2H)-one hydrochloride]"
